This note sets out measurements from patent US11873309B2, “Heterocyclic compounds as immunomodulators” (Incyte Corporation, priority 2016, dated 2024).

The target in this test is T1, PD-1/PD-L1 protein/protein interaction (recombinant human PD-L1 protein (19-238), recombinant human PD-1 protein (25-167)) (Homo sapiens, UniProt Q9NZQ7).
T1 construct: Recombinant human PD-L1 protein (19-238) with a His-tag at the C-terminus; purchased AcroBiosystems PD1-H5229 (PD-L1); PD1-H5257 (PD-1)
T1 sequence (Q9NZQ7 19-238): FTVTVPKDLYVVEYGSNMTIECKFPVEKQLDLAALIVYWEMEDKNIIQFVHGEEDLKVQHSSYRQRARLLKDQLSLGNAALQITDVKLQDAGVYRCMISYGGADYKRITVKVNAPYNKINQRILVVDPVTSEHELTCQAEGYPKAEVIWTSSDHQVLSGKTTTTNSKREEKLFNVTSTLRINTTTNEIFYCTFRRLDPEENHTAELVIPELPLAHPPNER
In words: PD-1/PD-L1 Homogeneous Time-Resolved Fluorescence (HTRF) Binding Assay. The settings on record: 25° C., PBS buffer pH 7.4, 40 minutes preincubation with inhibitors. As to the method:
Example A. PD-1/PD-L1 Homogeneous Time-Resolved Fluorescence (HTRF) Binding Assay
The assays were conducted in a standard black 384-well polystyrene plate with a final volume of 20 μL. Inhibitors were first serially diluted in DMSO and then added to the plate wells before the addition of other reaction components. The final concentration of DMSO in the assay was 1%. The assays were carried out at 25° C. in the PBS buffer (pH 7.4) with 0.05% Tween-20 and 0.1% BSA. Recombinant human PD-L1 protein (19-238) with a His-tag at the C-terminus was purchased from AcroBiosystems (PD1-H5229). Recombinant human PD-1 protein (25-167) with Fc tag at the C-terminus was also purchased from AcroBiosystems (PD1-H5257). PD-L1 and PD-1 proteins were diluted in the assay buffer and 10 μL was added to the plate well. Plates were centrifuged and proteins were preincubated with inhibitors for 40 minutes. The incubation was followed by the addition of 10 μL of HTRF detection buffer supplemented with Europium cryptate-labeled anti-human IgG (PerkinElmer-AD0212) specific for Fc and anti-His antibody conjugated to SureLight®-Allophycocyanin (APC, PerkinElmer-AD0059H). After centrifugation, the plate was incubated at 25° C. for 60 min. before reading on a PHERAstar FS plate reader (665 nm/620 nm ratio). Final concentrations in the assay were […], 10 nM PD-L1, 1 nM europium anti-human IgG and 20 nM anti-His-Allophycocyanin. IC50 determination was performed by fitting the curve of percent control activity versus the log of the inhibitor concentration using the GraphPad Prism 5.0 software.
`N#Cc1c(NC(=O)c2nc3c(s2)CNCC3)cccc1-c1ccc2c(c1)OCCO2` [Example 1, N-[2-cyano-3-(2,3-dihydro-1,4-benzodioxin-6-yl)phenyl]-4,5,6,7-tetrahydro[1,3]thiazolo[5,4-c]pyridine-2-carboxamide]: the IC50 was ≤ 0.1 µM.

For `N#Cc1c(NC(=O)c2nc3c(s2)CNCC3)cccc1-c1ccccc1` [Example 2, N-(2-cyanobiphenyl-3-yl)-4,5,6,7-tetrahydro[1,3]thiazolo[5,4-c]pyridine-2-carboxamide], the IC50 is ≤ 0.1 µM.

Take `Cn1ncc2c(-c3cccc(NC(=O)c4nc5c(s4)CNCC5)c3C#N)cccc21` [Example 3, N-[2-cyano-3-(1-methyl-1H-indazol-4-yl)phenyl]-4,5,6,7-tetrahydro[1,3]thiazolo[5,4-c]pyridine-2-carboxamide]: the IC50 is ≤ 0.1 µM.

Regarding `N#Cc1c(NC(=O)c2nc3c(s2)CNCC3)cccc1-c1ccccc1F` [Example 4, N-(2-cyano-2′-fluorobiphenyl-3-yl)-4,5,6,7-tetrahydro[1,3]thiazolo[5,4-c]pyridine-2-carboxamide], the IC50 is ≤ 0.1 µM.

As to `COc1cccc(-c2cccc(NC(=O)c3nc4c(s3)CNCC4)c2C#N)c1F` [Example 5, N-(2-cyano-2′-fluoro-3′-methoxybiphenyl-3-yl)-4,5,6,7-tetrahydro[1,3]thiazolo[5,4-c]pyridine-2-carboxamide], the IC50 was ≤ 0.1 µM.

Consider `N#Cc1c(NC(=O)c2nc3c(s2)CNCC3)cccc1-c1ccc2c(c1)OCC2` [Example 6, N-[2-cyano-3-(2,3-dihydro-1-benzofuran-6-yl)phenyl]-4,5,6,7-tetrahydro[1,3]thiazolo[5,4-c]pyridine-2-carboxamide], for which the IC50 is ≤ 0.1 µM.

With `N#Cc1c(NC(=O)c2nc3c(s2)CNCC3)cccc1C1=CCCCC1` [Example 7, N-(2-cyano-3-cyclohex-1-en-1-ylphenyl)-4,5,6,7-tetrahydro[1,3]thiazolo[5,4-c]pyridine-2-carboxamide], the IC50 is ≤ 0.1 µM.

For `N#Cc1c(NC(=O)c2nc3c(s2)CNCC3)cccc1C1CCCCC1` [Example 8, N-(2-cyano-3-cyclohexylphenyl)-4,5,6,7-tetrahydro[1,3]thiazolo[5,4-c]pyridine-2-carboxamide], the IC50 fell in the range of 0.1 to 0.5 µM.

For the compound `N#Cc1c(NC(=O)c2nc3c(s2)CNCC3)cccc1-c1c(F)cccc1F` [Example 9, N-(2-cyano-2′,6′-difluorobiphenyl-3-yl)-4,5,6,7-tetrahydro[1,3]thiazolo[5,4-c]pyridine-2-carboxamide], the IC50 is ≤ 0.1 µM.

As to `N#Cc1c(NC(=O)c2cc3n(n2)CCNC3)cccc1-c1ccc2c(c1)OCCO2` [Example 10, N-[2-cyano-3-(2,3-dihydro-1,4-benzodioxin-6-yl)phenyl]-4,5,6,7-tetrahydropyrazolo[1,5-a]pyrazine-2-carboxamide], the IC50 lay within 0.1 to 0.5 µM.

Take `N#Cc1c(NC(=O)c2cc3n(n2)CCN(CCO)C3)cccc1-c1ccc2c(c1)OCCO2` [Example 11, N-[2-cyano-3-(2,3-dihydro-1,4-benzodioxin-6-yl)phenyl]-5-(2-hydroxyethyl)-4,5,6,7-tetrahydropyrazolo[1,5-a]pyrazine-2-carboxamide]: the IC50 lay within 0.1 to 0.5 µM.

For `Cn1c(C(=O)Nc2cccc(-c3ccc4c(c3)OCCO4)c2C#N)nc2c1CCNC2` [Example 12, N-[2-cyano-3-(2,3-dihydro-1,4-benzodioxin-6-yl)phenyl]-1-methyl-4,5,6,7-tetrahydro-1H-imidazo[4,5-c]pyridine-2-carboxamide], the half-inhibitory concentration (IC50) was ≤ 0.1 µM.

With `Cn1c(C(=O)Nc2cccc(-c3ccc4c(c3)OCCO4)c2C#N)nc2c1CCN(CCO)C2` [Example 13, N-(2-cyano-3-(2,3-dihydrobenzo[b][1,4]dioxin-6-yl)phenyl)-5-(2-hydroxyethyl)-1-methyl-4,5,6,7-tetrahydro-1H-imidazo[4,5-c]pyridine-2-carboxamide], the IC50 is ≤ 0.1 µM.

In the case of `N#Cc1c(NC(=O)c2nc3n(n2)CCNC3)cccc1-c1ccc2c(c1)OCCO2` [Example 14, N-[2-cyano-3-(2,3-dihydro-1,4-benzodioxin-6-yl)phenyl]-5,6,7,8-tetrahydro[1,2,4]triazolo[1,5-a]pyrazine-2-carboxamide], the IC50 fell in the range of 0.5 to 10 µM.

For `N#Cc1cccc(-c2cccc(NC(=O)c3nc4c(s3)CNCC4)c2C#N)c1F` [Example 15, N-(2,3′-dicyano-2′-fluorobiphenyl-3-yl)-4,5,6,7-tetrahydro[1,3]thiazolo[5,4-c]pyridine-2-carboxamide], the IC50 lay in the range of 0.1 to 0.5 µM.

Turning to `COc1cccc(-c2cccc(NC(=O)c3nc4c(s3)CNCC4)c2C#N)c1` [Example 16, N-(2-cyano-3′-methoxybiphenyl-3-yl)-4,5,6,7-tetrahydrothiazolo[5,4-c]pyridine-2-carboxamide], the IC50 is ≤ 0.1 µM.

Turning to `COc1cc(F)cc(-c2cccc(NC(=O)c3nc4c(s3)CNCC4)c2C#N)c1` [Example 17, N-(2-cyano-3′-fluoro-5′-methoxybiphenyl-3-yl)-4,5,6,7-tetrahydro[1,3]thiazolo[5,4-c]pyridine-2-carboxamide], the half-inhibitory concentration (IC50) was ≤ 0.1 µM.

With `N#Cc1c(NC(=O)c2nc3c(s2)CNCC3)cccc1-c1ccccc1Cl` [Example 18, N-(2′-chloro-2-cyanobiphenyl-3-yl)-4,5,6,7-tetrahydro[1,3]thiazolo[5,4-c]pyridine-2-carboxamide], the IC50 is ≤ 0.1 µM.

`COc1cccc(-c2cccc(NC(=O)c3cn4c(n3)CNCC4)c2C#N)c1F` [Example 19, N-(2-cyano-2′-fluoro-3′-methoxybiphenyl-3-yl)-5,6,7,8-tetrahydroimidazo[1,2-a]pyrazine-2-carboxamide]: the IC50 is ≤ 0.1 µM.

For the compound `Cc1c(NC(=O)c2nc3c(s2)CNCC3)cccc1-c1ccc2c(c1)OCCO2` [Example 20, N-[3-(2,3-dihydro-1,4-benzodioxin-6-yl)-2-methylphenyl]-4,5,6,7-tetrahydro[1,3]thiazolo[5,4-c]pyridine-2-carboxamide], the half-maximal inhibitory concentration (IC50) was ≤ 0.1 µM.

Turning to `COc1cccc(-c2cccc(NC(=O)c3nc4c(s3)CNCC4)c2C)c1F` [Example 21, N-(2′-fluoro-3′-methoxy-2-methylbiphenyl-3-yl)-4,5,6,7-tetrahydro[1,3]thiazolo[5,4-c]pyridine-2-carboxamide], the IC50 was ≤ 0.1 µM.

On to `COc1cccc(-c2cccc(NC(=O)c3nc4c(n3C)CCNC4)c2C)c1F` [Example 22, N-(2′-fluoro-3′-methoxy-2-methylbiphenyl-3-yl)-1-methyl-4,5,6,7-tetrahydro-1H-imidazo[4,5-c]pyridine-2-carboxamide], for which the IC50 was ≤ 0.1 µM.

As for `Cc1c(NC(=O)c2nc3c(s2)CNCC3)cccc1-c1cccc2c1cnn2C` [Example 23, N-[2-methyl-3-(1-methyl-1H-indazol-4-yl)phenyl]-4,5,6,7-tetrahydro[1,3]thiazolo[5,4-c]pyridine-2-carboxamide], the IC50 is ≤ 0.1 µM.

Regarding `Cc1c(NC(=O)c2nc3c(s2)CNCC3)cccc1-c1cccc(CO)c1F` [Example 24, N-[2′-fluoro-3′-(hydroxymethyl)-2-methylbiphenyl-3-yl]-4,5,6,7-tetrahydro[1,3]thiazolo[5,4-c]pyridine-2-carboxamide], the IC50 lay in the range of 0.5 to 10 µM.

On to `Cc1c(NC(=O)c2nc3c(s2)CNCC3)cccc1-c1cccc2[nH]ncc12` [Example 25, N-[3-(1H-indazol-4-yl)-2-methylphenyl]-4,5,6,7-tetrahydro[1,3]thiazolo[5,4-c]pyridine-2-carboxamide], for which the IC50 was ≤ 0.1 µM.
